Molecules are shown by their SMILES. “Also recorded” adds a separate entry of the source. Where two headings read alike, the source gives them in different places.

Consider three compounds from patent US20220273829A1, “RADIOLABELED SUGARS FOR IMAGING OF FUNGAL INFECTIONS” (THE UNITED STATES OF AMERICA, as represented by the …, priority 2019, published 2022).

The subject of one data set is P. aeruginosa. Particulars: Ordonez et al. 2017; cited from earlier work.
Data set [1] has as its system bacteria. Particulars: gram negative and gram positive; Ordonez et al. 2017; cited from earlier work.
Data set [2] relates to J774 macrophages. The following applies: Ordonez et al. 2017; cited from earlier work.
The subject of data set [3] is A. fumigatus infected mice. Nature of the data set: Autoradiography of tissue sections from injected infected mice. The following applies: lung sections; nasopharyngeal inoculation model; FIG. 1F, FIG. 5A. It is filed as in vivo, mouse. As to the method: (§1) The inventors identified sugars and other molecules involved in the metabolic pathways of clinically-relevant fungal infections, and generated radiolabeled versions (3H or 14C) that were tested for in vitro uptake in bacteria (gram-negative, gram-positive, Pseudomonas aeruginosa), macrophages (J774 cell line) and m clinically-relevant fungal strains including Aspergillus, Rhizomucor, Cryptococcus and Candida albicans. Organisms and cells were exposed to the radiolabeled compounds and the in vitro uptake was measured (retained radioactivity after incubation and washing of the cultures measured using a beta counter). […] For the biodistribution and autoradiography studies showing specific uptake of the radioactive molecules by fungal-infected animals (i.e., retained radioactivity in the lungs in the infected animals but not in the control animals), the ligand(s) specific for each type of fungi was radiolabeled with 18F or other PET isotopes. […] The images are reconstructed and analyzed using special software. […]
ex vivo experiments were performed, including biodistribution (injecting the animals with radiolabeled molecules followed by euthanasia, collection of organs and measurement of radioactivity) and autoradiography (sectioning of lung tissues from injected animals to measure residual radioactivity). […]

The test system of data set [4] is bacteria. Description: In vitro uptake of radiolabeled sugar in bacterial cultures. Particulars: FIGS. 1B-1C. In kind it is cell-based, E. coli, S. aureus. The procedure:
The inventors identified sugars and other molecules involved in the metabolic pathways of clinically-relevant fungal infections, and generated radiolabeled versions (3H or 14C) that were tested for in vitro uptake in bacteria (gram-negative, gram-positive, Pseudomonas aeruginosa), macrophages (J774 cell line) and m clinically-relevant fungal strains including Aspergillus, Rhizomucor, Cryptococcus and Candida albicans. Organisms and cells were exposed to the radiolabeled compounds and the in vitro uptake was measured (retained radioactivity after incubation and washing of the cultures measured using a beta counter). […] For the biodistribution and autoradiography studies showing specific uptake of the radioactive molecules by fungal-infected animals (i.e., retained radioactivity in the lungs in the infected animals but not in the control animals), the ligand(s) specific for each type of fungi was radiolabeled with 18F or other PET isotopes. Using the radiolabeled ligand(s), live PET imaging is performed on infected mice using a microPET/CT scanner. This is done by injecting the radioactive ligand intravenously through the tail vein and then positioning the animals inside the microPET/CT gantry and obtaining CT scan images as well as PET emission data. The images are reconstructed and analyzed using special software. […]

For data set [5], the system named is A. fumigatus-infected lungs (nasopharyngeal model). Description: Organ biodistribution after injection of radiolabeled sugar in Aspergillus-infected mice. It is filed as in vivo, mouse. The following applies: infected vs uninfected controls / sterile lung inflammation, FIG. 2, FIG. 4C. The procedure: as §1
ex vivo experiments were performed, including biodistribution (injecting the animals with radiolabeled molecules followed by euthanasia, collection of organs and measurement of radioactivity) and autoradiography (sectioning of lung tissues from injected animals to measure residual radioactivity).

In data set [6] the test system is J774 macrophages. Description: In vitro uptake of radiolabeled sugar in macrophages / mammalian cells. Particulars: J774 cell line; FIG. 1D, FIG. 4B. It is filed as cell-based. As to the method: as §1, with “isotopes. Using the radiolabeled ligand(s), live PET imaging is performed on infected mice using a microPET/CT scanner.” for “isotopes.”
(§2) In vitro studies using ^3H-cellobiose were performed with measurement of retained radioactivity after incubation and washing of the cultures using a beta counter.

The test system of the next data set is A. fumigatus. Nature of the data set: In vitro uptake of radiolabeled sugar in fungal cultures (retained radioactivity after incubation and washing). It is filed as cell-based, Aspergillus fumigatus. The procedure: as §1, with “isotopes. Using the radiolabeled ligand(s), live PET imaging is performed on infected mice using a microPET/CT scanner.” for “isotopes.”
as §2

Data set [7] has as its system pulmonary aspergillosis (Aspergillus lung infection). In kind it is in vivo, mouse. Particulars: for PET/CT uptake (SUV) in lungs of infected mice: 60-minute dynamic PET/CT, pulmonary aspergillosis model vs controls and poly (I:C) treated mice. The procedure: The inventors identified sugars and other molecules involved in the metabolic pathways of clinically-relevant fungal infections, and generated radiolabeled versions (3H or 14C) that were tested for in vitro uptake in bacteria (gram-negative, gram-positive, Pseudomonas aeruginosa), macrophages (J774 cell line) and m clinically-relevant fungal strains including Aspergillus, Rhizomucor, Cryptococcus and Candida albicans. Organisms and cells were exposed to the radiolabeled compounds and the in vitro uptake was measured (retained radioactivity after incubation and washing of the cultures measured using a beta counter). […] For the biodistribution and autoradiography studies showing specific uptake of the radioactive molecules by fungal-infected animals (i.e., retained radioactivity in the lungs in the infected animals but not in the control animals), the ligand(s) specific for each type of fungi was radiolabeled with 18F or other PET isotopes. Using the radiolabeled ligand(s), live PET imaging is performed on infected mice using a microPET/CT scanner. This is done by injecting the radioactive ligand intravenously through the tail vein and then positioning the animals inside the microPET/CT gantry and obtaining CT scan images as well as PET emission data. The images are reconstructed and analyzed using special software. To confirm specificity for fungal infection, in vivo uptake of the ligand(s) in animal models of sterile inflammation, as well as models of bacterial infection (gram positive and gram negative bacteria) are performed.
Three main mouse models were developed: (1) Aspergillus lung infection (nasopharyngeal administration of 30 μl suspension of Aspergillus conidia), (2) Aspergillus hematogenous spread (intravenous administration of 100 μl of fungal suspension via the tail vein) and (3) sterile lung inflammation model (induced by nasopharyngeal administration of 50-100 μg of poly (I:C) suspension in 30 μl of sterile PBS; poly(I:C) is a synthetic double stranded RNA which activates Toll-like receptors-3 (TLR3), thereby inducing signaling via multiple inflammatory pathways).
Standardized uptake values (SUVs) of ^18F-L-rhamnose in infected mice were then measured, and compared to animals with sterile lung inflammation (24 hours following post-pharyngeal poly (I:C) administration) and healthy controls.

With `C[C@H](O)[C@H](O)[C@@H](O)[C@@H](O)C=O` [L-Rhamnose], in the data set with P. aeruginosa, the “L-Rhamnose uptake in P. aeruginosa” value is listed as “very low”. Further, in the data set on bacteria [1], the “L-Rhamnose uptake in bacteria” value is “low”. The “L-Rhamnose uptake in macrophages” value in the data set with J774 macrophages [2] was “very low”.

Consider `C[C@H](O)[C@H](O)[C@@H](O)[C@@H](O)C=O` [^3H-L-Rhamnose], for which, in [3], the “autoradiography: uptake in lungs of infected mice” value is “accumulation of ^3H-L-Rhamnose in the lungs of infected but not uninfected animals”. For the same compound, in the data set on bacteria [4], the “in vitro retention of 3H-L-Rhamnose by bacteria” value was “minimal retention”. Further, in data set [5], the “biodistribution: uptake in lungs of infected versus control mice” value was “uptake of ^3H-L-Rhamnose in the lungs of infected animals but not in uninfected controls; also recorded: increased uptake in the lungs of infected compared to control mice and mice with sterile lung inflammation”. Moreover, the “in vitro retention/uptake of 3H-labeled sugar by macrophages (mammalian cells)” value in the data set on J774 macrophages [6] is on record as “minimal retention”. The “in vitro retention/uptake of 3H-labeled sugar by A. fumigatus” value in the data set with A. fumigatus (retained radioactivity after incubation and washing, beta counter, FIG. 1A, FIG. 4A) is “significant retention”.

Turning to `C[C@H](O)[C@H](O)[C@@H](O)[C@@H]([18F])C=O` [^18F-L-rhamnose, 2-deoxy-2-[^18F]fluororhamnose], in the data set on A. fumigatus (live versus heat-killed cultures, FIG. 1E), the “in vitro uptake of ^18F-L-rhamnose by A. fumigatus” value is “specifically internalized by live A. fumigatus cultures when compared to heat-killed cultures”. Also, the “PET/CT uptake (SUV) in lungs of infected mice” value was “slight higher uptake in lung lesions compared to controls and poly (I:C) treated mice” in data set [7] (FIG. 3A); “Increased uptake is seen in the lungs of nasopharyngeally-infected pulmonary IA (AF NP) mice” in data set [7] (FIG. 3A, listed as [^18F]-rhamnose). Moreover, in [7] (control and poly (I:C) mice, averaged 520-3520 seconds post injection, FIG. 3A), the “PET uptake in lungs of control or sterile lung inflammation mice” value is recorded as “no appreciable uptake is seen in the lungs of control or sterile lung (poly (I:C)inflammation mice”. Moreover, the “washout of the ligand (time activity curve)” value in data set [7] (mouse, in vivo) is given as “relatively fast washout”.
